Source: patent US7595395B2, “Gabaergic agents to treat memory deficits” (priority 2005, dated 2009)
Read-outs that look alike come from different tables or passages of the source.

Legend:
[1] = target: T1, α3β3γ2 benzodiazepine receptor GABA(A) isoform (UniProt P18507+P34903); assay: Radioligand competition binding, α3β3γ2 BzR/GABA(A) isoform; set-up: species or system human and rat
T1 sequence (P18507 1-475): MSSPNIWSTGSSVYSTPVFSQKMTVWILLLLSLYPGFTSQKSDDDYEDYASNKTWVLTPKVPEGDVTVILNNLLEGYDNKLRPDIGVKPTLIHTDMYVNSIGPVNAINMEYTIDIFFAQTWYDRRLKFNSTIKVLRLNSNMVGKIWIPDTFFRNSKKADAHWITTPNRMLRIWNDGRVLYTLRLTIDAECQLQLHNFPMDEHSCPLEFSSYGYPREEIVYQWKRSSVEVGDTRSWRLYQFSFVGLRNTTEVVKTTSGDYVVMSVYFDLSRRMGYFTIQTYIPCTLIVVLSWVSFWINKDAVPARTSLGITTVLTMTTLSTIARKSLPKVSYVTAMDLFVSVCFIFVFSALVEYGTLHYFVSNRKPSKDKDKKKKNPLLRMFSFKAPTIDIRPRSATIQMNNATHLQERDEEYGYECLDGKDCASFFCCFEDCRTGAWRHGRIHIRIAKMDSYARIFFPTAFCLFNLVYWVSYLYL
T1 sequence (P34903 1-492): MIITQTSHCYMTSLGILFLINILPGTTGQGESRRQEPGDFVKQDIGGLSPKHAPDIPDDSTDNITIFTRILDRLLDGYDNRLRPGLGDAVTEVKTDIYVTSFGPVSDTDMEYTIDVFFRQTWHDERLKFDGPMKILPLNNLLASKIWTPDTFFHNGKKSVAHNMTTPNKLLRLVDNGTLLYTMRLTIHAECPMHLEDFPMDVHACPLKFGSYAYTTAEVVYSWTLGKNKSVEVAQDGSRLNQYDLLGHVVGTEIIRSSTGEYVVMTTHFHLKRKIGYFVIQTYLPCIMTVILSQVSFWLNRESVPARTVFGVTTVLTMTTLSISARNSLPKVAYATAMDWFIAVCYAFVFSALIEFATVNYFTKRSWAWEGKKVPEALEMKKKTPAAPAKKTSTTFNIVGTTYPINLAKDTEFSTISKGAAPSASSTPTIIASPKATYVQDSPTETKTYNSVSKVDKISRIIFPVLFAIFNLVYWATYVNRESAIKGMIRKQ
Protocol: (§1) The affinity of all ligands at the 6 major recombinant GABAA/BzR subtypes was measured by competition for [^3H]Ro15-1788 binding to HEK-T cells expressing both human and rat GABAA/Bz receptors of composition α1β2γ2 (α1), α2β2γ2 (α2), α3β2γ2 (α3), α4β2γ2 (α4), α5β2γ2 (α5) and α6β2γ2 (α6). It is well known that the β2 and β3 subunits can be interchanged with no effect on Bz ligand affinity or efficacy. […] These studies are similar to those performed in the laboratory of Bryan Roth who has already expressed the receptors employing the work of Kucken et. al. and Gray et. al.
(§2) In brief, for membrane preparations, the cells were scraped on to the ice and diluted into 5 mL of phosphate buffered saline (pH=7.40) and cells pelleted by centrifugation for 5 min. at 4° C. The pellet was resuspended in 1 mL of 50 mM Tris-acetate buffer (pH 7.4) and centrifuged at 18,000 g for 20 min. […] Each pellet were diluted to 6 mL and then 100 μL of membranes were incubated with approximately 1 nM final concentration of [^3H]Ro 15-1788 in a total volume of 250 μL together with serial dilutions of test compound for 90 min. on ice. The membranes were harvested in polyethyleneimine-pretreated Whatman GF/C filters and after drying and addition of scintillation cocktail, counted in a scintillation counter. The cpm retained on the filters was plotted against log concentration (M) and fitted to one site competition equation to obtain the Ki using Graphpad Prizm (V4.0) using the Cheng-Prusoff approximation.

[2] = target: α4β3γ2 benzodiazepine receptor GABA(A) isoform (UniProt P18507+P48169); assay: Radioligand competition binding, α4β3γ2 BzR/GABA(A) isoform; set-up: species or system human and rat
Protocol: as §1
as §2, with “The cpm retained on the filters was plotted against log concentration (M) and fitted to one site competition equation to obtain the Ki using Graphpad Prizm (V4.0) using the Cheng-Prusoff approximation.” left out

[3] = read-out: Ki α3, Table I, means of two determinations
[4] = read-out: α3, untitled table of lead compounds, unit inferred

| Structure (SMILES) | Ki [1, 3] [nM] | Ki [1, 4] [nM] | Ki ([2]; Table I, means of two determinations, read-out: Ki α4) [nM] | Ki ([2]; untitled table of lead compounds, unit inferred, read-out: α4) [nM] | melting point [°C] |
| --- | --- | --- | --- | --- | --- |
| COCc1ncn2c1CN(C)C(=O)c1cc(Cl)ccc1-2 [PWZ-029, methyl(8-chloro-5,6-dihydro-5-methyl-6-oxo-4H-imidazo[1,5-α][1,4]benzodiazepin-3-yl)methyl ether] | > 300 | > 300 |  |  |  |
| CCOC(=O)c1ncn2c1CN=C(c1ccccc1)c1cc(-c3ccccc3)ccc1-2 [DM-I-81, Ethyl 8-phenyl-6-phenyl-4H-benzo[f]imidazo[1,5-a][1,4]diazepine-3-carboxylate] | > 2000 | > 2000 | > 2000 | > 2000 | 200 to 201 |
